Work on `CCOC(=O)C=C1CCc2c(c(OC)c(OC)c(OC)c2OC)CC1` yielded a melting point of 61 to 63 °C. With `CCC1Sc2cc(-c3cccc([N+](=O)[O-])c3)ccc2NC1=O` (centres undefined) the melting point was 180 °C. For `O=C(O)CC(NS(=O)(=O)c1c(Cl)cc(Cl)cc1Cl)c1ccccc1` (centres undefined), the melting point was 218 to 219 °C. `CC(C)(Cc1ccccc1)C(NC(=O)c1ccc(Cl)cc1)Nc1c(Nc2cncc(C(F)(F)F)c2)c(=O)c1=O` (centres undefined) gave a melting point of 194 to 195 °C. In the case of `CCCCCCc1cnc(-c2ccc(C#N)cc2)nc1`, the melting point is reported as 53.5 to 54.5 °C. For `CC(c1ccc2ccccc2c1)N(O)C(=O)NO` (centres undefined), the melting point was 148 to 150 °C. With `O=S(=O)(c1ccc(-n2cccn2)cc1)N1CCC(CNCC(O)COc2ccc(O)cc2)CC1` (centres undefined) the melting point was 169 to 171 °C. With `Cc1noc(C)c1C(C)(O)c1ccoc1` (centres undefined) the melting point was 88 to 90 °C. For `CC(C)(C)c1cc(C2NNC(=S)N2N)cc(C(C)(C)C)c1O` (centres undefined), the melting point was 260 to 270 °C. Molecule `CC(C)(C)OC(=O)NCc1cccc(C2CCNCC2)c1` has a melting point of 79 to 84 °C. `Cc1c(-c2ccccc2)c(=O)[nH]c2ccccc12` gave a melting point of 266 to 268 °C. For `CNC(=O)ON=C(C)SC(C)C(N)=O` (centres undefined), the melting point was 161 to 163 °C. `CCOC(=O)c1cc2c3n(ccc-2n1)CC(CO)=N3` gave a melting point of 227 to 229 °C. For `Cc1cc(F)cc2c(=O)c(C(=O)O)cn(CC(F)(F)F)c12`, the melting point was 198 to 201 °C. With `CN(Cc1cccc2c1CN(C1CCC(=O)NC1=O)C2=O)C(=O)NC1CCCCC1` (centres undefined) the melting point was 219 to 221 °C. Molecule `Oc1cc(=S)sc2cccc(C(F)(F)F)c12` has a melting point of 142 to 144 °C. With `O=C(Nc1cccc(S(=O)(=O)N(CCO)CCO)c1)c1cnn2c(C(F)F)cc(-c3ccc(C(F)(F)F)cc3)nc12` the melting point was 208 °C. Molecule `COc1ccc(CNc2nc(N3CCC[C@H]3CO)cnc2C(=O)O)cc1Cl` has a melting point of 169 to 171 °C. Work on `CCC(CC)Nc1nc(C)nc(Nc2c(C)cc(C)nc2C)c1[N+](=O)[O-]` yielded a melting point of 151 to 152 °C. With `CCCCCCCCCCCc1nnc2n1-c1ccccc1C(c1ccc(Cl)cc1)NC2` (centres undefined) the melting point was 94 to 95 °C. With `CC(C)(C)c1ccc(S(=O)(=O)N2c3ccccc3C[C@H]2C(=O)NCc2ccc([N+](=O)[O-])cc2)cc1` the melting point was 75 to 80 °C. Work on `C[C@H](N)Cn1ncc2ccc3oc(C(=O)NCC4(O)CC4)cc3c21` yielded a melting point of 77 to 79 °C. `C[C@]12CC[C@H]3[C@@H](CCC4=CC(=O)CC[C@@]43COC(=O)C34CC5CC(CC(C5)C3)C4)[C@@H]1CCC2=O` showed a melting point of 161 to 163 °C. Molecule `FC1(Cl)Oc2cc3nc(C(Cl)(Cl)Cl)[nH]c3cc2OC1(F)Cl` (centres undefined) has a melting point greater than 230 °C. `CCOC(=O)c1ccc(NCCCc2c(N(C(C)=O)C(C)=O)nc(NC(C)=O)[nH]c2=O)cc1` showed a melting point of 197 to 198 °C. `CN(C)C1CCCCC1Oc1ccc(Cc2c(-c3ccc(OCCN4CCCC4)cc3)sc3cc(O)ccc23)cc1` (centres undefined) showed a melting point of 95 to 98 °C. `CN1CCC(=O)C(=C2SC=CS2)C1=O` gave a melting point of 148 to 153 °C. `N#CCNC(=O)c1ccc([N+](=O)[O-])cc1` showed a melting point of 147 to 149 °C. Molecule `CCOC(=O)/C=C/c1ccc(OCC(C)(C)O)cc1Oc1ncc(C(F)(F)F)cc1Cl` has a melting point of 79 to 83 °C. With `CC(=O)N(C(=O)OC(C)(C)C)c1ccc(-c2nc3n(Cc4c(F)cccc4F)c(C)c(Cc4ccccc4)c(=O)n3c2C)cc1` the melting point was 176 to 177 °C. With `[N-]=[N+]=N[C@]1(C(=O)O)[C@H]2[C@@H](C[C@H]1O)[C@@H]2C(=O)O` the melting point was 124 to 128 °C. `CCOC(=O)C(Cc1ccc(OCCN2CCC(C)(C)c3cc(C(=NOC)c4ccccc4)ccc32)cc1)Nc1ccccc1C(=O)c1ccccc1` (centres undefined) showed a melting point of 78 to 80 °C. In the case of `CS(=O)(=O)Nc1ccc2nc(CCl)ccc2c1`, the melting point is reported as 160 to 162 °C. Work on `O=[N+]([O-])c1ccc(C=Nc2c3c(nc4ccccc24)CCCC3)cc1` yielded a melting point of 237 to 238 °C. Work on `CCSC(=O)OCOC(=O)c1ccco1` yielded a melting point of 37.2 to 38.4 °C. Work on `Nc1cc(C(=O)NC2CC2)n[nH]1` yielded a melting point greater than 246 °C. Molecule `CN(Cc1cc(C(=O)O)ccc1N)C1CCCCC1` has a melting point of 200 to 205 °C. In the case of `C=CCOc1ccccc1-c1ncc(C(N)=O)c(=O)[nH]1`, the melting point is reported as 202 to 204 °C. With `CC(=O)Nc1cccc2c1C(=O)c1c-2n[nH]c1-c1ccc(N(C)C)cc1` the melting point was greater than 300 °C. Work on `CCCCCCCCCCCCCCOc1ccc(C(=O)N(CC(=O)OC)CC(=O)OC)cc1OCCCCCCCCCCCCCC` yielded a melting point of 70 to 71 °C. `O=C1C[C@@H](O)C[C@H](CCc2c(Cl)cc(Cl)cc2OCc2ccc(F)cc2)O1` gave a melting point of 133 to 135 °C. With `CC(C)(C)OC(=O)NCOc1ccccc1C(=O)O` the melting point was 141 to 144 °C. In the case of `CCc1cc2c(c(Sc3ccccc3)cc(=O)n2Cc2ccc(C(=O)O)cc2)c(CC)n1`, the melting point is reported as 260 to 262 °C. Work on `CC1(C)CCC(C)(C)c2cc3[nH]c(SCc4ccccn4)nc3cc21` yielded a melting point of 199 to 200 °C. For `O=S(=O)(c1ccccc1)S(=O)(=O)c1ccccc1`, the melting point was 142 to 144 °C. `CN(C(=O)C(C)(C)C)C1(c2ccccc2)CCNCC1` gave a melting point of 125 °C. `COc1ccc(C)cc1NC(=O)Nc1ccc(N2CCN(C(=O)Nc3c(C)cccc3C(=O)O)CC2)cc1` showed a melting point of 159 to 160 °C. Molecule `CCOC(=O)c1[nH]c2cc(C(F)(F)F)ccc2c1N` has a melting point of 204 to 210 °C. Work on `CCOC(=O)C1=C(C)NC(C)=C(C(=O)c2ccco2)C1c1ccccc1[N+](=O)[O-]` (centres undefined) yielded a melting point of 133 to 134 °C. With `COC(=O)c1cnoc1-c1ccc(F)cc1` the melting point was 92 to 93 °C. Work on `CCCCCCCCCCCCCCCCCCOc1cc(OCCCCC(=O)O)cc(N(CC(=O)O)CC(=O)O)c1` yielded a melting point of 126 to 128 °C. With `CC1(O)CC(=O)OC(CCc2ccc(OCc3ccc(F)cc3)cc2)C1Br` (centres undefined) the melting point was 160 to 163 °C. `Cc1ccc2nc(CN3CCN(c4ccc(F)cc4)CC3)cn2c1` gave a melting point of 112 °C. Molecule `COC(=O)COc1ccc(Cn2c(-c3ccc(OC4CCCC4)cc3)c(C)c3cc(OCc4ccccc4)ccc32)cc1` has a melting point of 96 to 98 °C. For `CC1(C(=O)Nc2ccc(OC(=O)Cc3cccs3)c(Cl)c2Cl)CCCCC1`, the melting point was 58 °C. With `CCCCCCCCCCCCCCCC(=O)NS(=O)(=O)CCCC(=O)O` the melting point was 156 to 157 °C. With `O=C(Nc1cnc(OCCO)c(NC(=O)OCCCl)c1)OCCCl` the melting point was 176 to 178 °C. `Cc1c(NC(=O)c2ccc(-c3ccc(OC(F)(F)F)cc3)cc2F)ccc2cc(CN3CCCC3)cnc12` showed a melting point of 175 to 178 °C. In the case of `CC(=O)OCC1OC(Oc2nc[nH]c2C(N)=O)C(OC(C)=O)C1OC(C)=O` (centres undefined), the melting point is reported as 132 to 134 °C. For `Cc1noc(NS(=O)(=O)c2ccc(-c3ccccc3)cc2)c1Br`, the melting point was 133 to 135 °C. `CCN(CC)C(=O)c1ccc(C)c(-c2nc(SC)nc3c2CNC(=O)N3c2c(F)cccc2F)c1` gave a melting point of 127 to 129 °C. For `CSC(Oc1cc(Cl)cc(Cl)c1)C(=O)NC(C)(C)C#CCCCC#N` (centres undefined), the melting point was 113 to 114 °C. `CSc1nnc2n1C=Cc1ccccc1C2c1ccccc1` (centres undefined) showed a melting point of 169 to 170 °C. With `CCN1CC(=O)N(c2ccccc2C(F)(F)F)C1=S` the melting point was 82 to 85 °C. `CC(C)c1ccc(-c2nccc(-c3ccc(C(=O)O)cc3)n2)cc1` gave a melting point of 262 to 264 °C. Molecule `CCCCCCCCCCc1ccc(CNc2ccc(C(=O)O)cc2)cc1` has a melting point of 135 to 136 °C. `CN(C)C(=O)c1ccccc1Sc1ccc(F)cc1[N+](=O)[O-]` showed a melting point of 56 to 57 °C. With `COC(=O)c1ccc(C(C)(C)CO)cc1` the melting point was 44 to 45 °C. With `COc1ccc(C2=NN(C3CCN(C(=O)CN4C(=O)c5ccccc5C4=O)CC3)C(=O)C(C)(C)C2)cc1OC` the melting point was 193 to 194 °C.

— a melting point compilation (Tetko et al.; mined from patent text by program, amines drawn as free bases though some values may be those of a salt)
